Reference: patent US9688710B2, “Inhibitors of sodium glucose cotransporter 1” (LEXICON PHARMACEUTICALS, INC., priority 2012, dated 2017)

Columns and labels:
[1] = target: Human sodium/glucose co-transporter type 2 (SGLT2) (Homo sapiens (Human), UniProt P31639); assay: In vitro human SGLT2 inhibition assay (14C-AMG uptake); format: cell-based; conditions: HEK293 cells expressing human HA-SGLT2, 14C-AMG uptake
Summary of the method: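 Uptake of 14C-AMG (100 nCi) was followed in a stable HEK293 HA-SGLT2 line over 1-2 h at 37 °C with or without compound. Buffer: 140 mM NaCl, 10 mM HEPES, 5 mM Tris, 1 mg/mL BSA, pH 7.3. Readout was scintillation counting after washing.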

[2] = target: Human sodium/glucose co-transporter type 1 (SGLT1) (Homo sapiens (Human), UniProt P13866); assay: In vitro human SGLT1 inhibition assay (14C-AMG uptake); format: cell-based; conditions: HEK293 cells expressing human HA-SGLT1, 14C-AMG uptake
Human sodium/glucose co-transporter type 1 (SGLT1), sequence (P13866 whole entry): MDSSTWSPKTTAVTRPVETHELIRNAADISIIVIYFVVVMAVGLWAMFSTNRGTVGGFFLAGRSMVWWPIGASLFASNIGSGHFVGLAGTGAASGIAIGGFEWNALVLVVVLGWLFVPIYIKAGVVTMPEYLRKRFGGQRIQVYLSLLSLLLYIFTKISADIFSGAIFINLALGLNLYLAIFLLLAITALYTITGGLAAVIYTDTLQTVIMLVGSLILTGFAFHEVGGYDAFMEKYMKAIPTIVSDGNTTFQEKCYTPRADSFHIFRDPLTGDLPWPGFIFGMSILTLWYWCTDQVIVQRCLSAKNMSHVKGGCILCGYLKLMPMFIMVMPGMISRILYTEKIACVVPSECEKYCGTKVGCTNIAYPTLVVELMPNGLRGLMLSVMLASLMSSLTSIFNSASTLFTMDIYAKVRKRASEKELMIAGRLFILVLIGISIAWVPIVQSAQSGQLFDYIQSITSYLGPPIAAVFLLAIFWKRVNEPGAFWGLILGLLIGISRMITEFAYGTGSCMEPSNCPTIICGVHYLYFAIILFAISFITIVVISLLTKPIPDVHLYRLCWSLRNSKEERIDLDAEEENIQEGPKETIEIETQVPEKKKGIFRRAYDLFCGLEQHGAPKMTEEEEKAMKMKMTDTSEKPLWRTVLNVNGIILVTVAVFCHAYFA
Summary of the method: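 Uptake of 14C-AMG (100 nCi) was measured by scintillation counting after 1–2 h at 37 °C, 5% CO2, with or without compound. The buffer was pH 7.3 with 140 mM NaCl, 1 mM CaCl2, 1 mM MgCl2 and 1 mg/mL BSA. Cells were a stable HEK293 line carrying HA-SGLT1 (human), plated overnight at 30,000 per well.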

Human sodium/glucose co-transporter type 2 (SGLT2), sequence (P31639 whole entry): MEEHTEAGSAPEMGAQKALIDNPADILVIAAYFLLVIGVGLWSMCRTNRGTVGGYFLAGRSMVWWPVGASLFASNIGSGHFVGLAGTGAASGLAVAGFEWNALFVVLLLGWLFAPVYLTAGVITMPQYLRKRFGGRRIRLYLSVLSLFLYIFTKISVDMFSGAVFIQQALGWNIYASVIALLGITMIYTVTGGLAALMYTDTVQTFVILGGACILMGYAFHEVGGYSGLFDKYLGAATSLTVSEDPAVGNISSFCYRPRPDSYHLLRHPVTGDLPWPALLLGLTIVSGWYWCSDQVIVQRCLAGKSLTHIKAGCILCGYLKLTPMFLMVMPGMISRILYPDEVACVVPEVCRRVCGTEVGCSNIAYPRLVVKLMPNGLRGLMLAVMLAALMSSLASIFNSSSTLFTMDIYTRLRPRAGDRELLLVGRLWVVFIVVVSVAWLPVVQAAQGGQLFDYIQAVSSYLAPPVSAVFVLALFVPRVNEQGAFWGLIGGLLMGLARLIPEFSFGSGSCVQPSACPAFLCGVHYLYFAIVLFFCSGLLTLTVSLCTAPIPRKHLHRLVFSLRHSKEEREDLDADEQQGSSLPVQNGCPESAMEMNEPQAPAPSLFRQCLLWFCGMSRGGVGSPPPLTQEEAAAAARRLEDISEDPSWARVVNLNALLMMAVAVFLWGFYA

Structure (SMILES)	IC50 [1]	IC50 [2]
CS[C@H]1O[C@@H](c2ccc(C)c(Cc3ccc(OCCCNCC(C)(C)C(N)=O)cc3)c2)[C@H](O)[C@@H](O)[C@@H]1O [2,2-dimethyl-3-((3-(4-(2-methyl-5-((2S,3R,4R,5S,6R)-3,4,5-trihydroxy-6-(methylthio)tetrahydro-2H-pyran-2-yl)benzyl)phenoxy)propyl)-amino)propanamide]	< 0.01 µM	< 0.01 µM
CS[C@H]1O[C@@H](c2ccc(C)c(Cc3ccc(CCCCNC(C)(C)C(=O)N4CCN(C)CC4)cc3)c2)[C@H](O)[C@@H](O)[C@@H]1O [2-methyl-2-((4-(4-(2-methyl-5-((2S,3R,4R,5S,6R)-3,4,5-trihydroxy-6-(methylthio)tetrahydro-2H-pyran-2-yl)benzyl)phenyl)butyl)amino)-1-(4-methylpiperazin-1-yl)propan-1-one]	< 0.01 µM	< 0.01 µM
CS[C@H]1O[C@@H](c2ccc(C)c(Cc3ccc(CCCCNC(=O)NC(C)(C)C(N)=O)cc3)c2)[C@H](O)[C@@H](O)[C@@H]1O [2-methyl-2-(3-(4-(4-(2-methyl-5-((2S,3R,4R,5S,6R)-3,4,5-trihydroxy-6-(methylthio)tetrahydro-2H-pyran-2-yl)benzyl)phenyl)butyl)ureido)propanamide]	< 0.01 µM	< 0.01 µM
CS[C@H]1O[C@@H](c2ccc(C)c(Cc3ccc(OCCCC(=O)NC4(C(N)=O)CCCC4)cc3)c2)[C@H](O)[C@@H](O)[C@@H]1O [1-(4-(4-(2-methyl-5-((2S,3R,4R,5S,6R)-3,4,5-trihydroxy-6-(methylthio)tetrahydro-2H-pyran-2-yl)benzyl)phenoxy)butanamido)cyclopentanecarboxamide]	< 0.01 µM	< 0.01 µM
CS[C@H]1O[C@@H](c2ccc(C)c(Cc3ccc(OCCCNCC(C)(C)CN(C)C)cc3)c2)[C@H](O)[C@@H](O)[C@@H]1O [(2S,3R,4R,5S,6R)-2-(3-(4-(3-((3-(dimethylamino)-2,2-dimethylpropyl)amino)propoxy)benzyl)-4-methylphenyl)-6-(methylthio)tetrahydro-2H-pyran-3,4,5-triol]	< 0.01 µM	< 0.01 µM
CS[C@H]1O[C@@H](c2ccc(Cl)c(Cc3ccc(OCC(=O)NC(CO)(CO)CO)cc3)c2)[C@H](O)[C@@H](O)[C@@H]1O [2-(4-(2-chloro-5-((2S,3R,4R,5S,6R)-3,4,5-trihydroxy-6-(methylthio)tetrahydro-2H-pyran-2-yl)benzyl)phenoxy)-N-(1,3-dihydroxy-2-(hydroxymethyl)propan-2-yl)acetamide]	< 0.01 µM	< 0.1 µM
CS[C@H]1O[C@@H](c2ccc(Cl)c(Cc3ccc(OCC(=O)NC(C)(C)C(N)=O)cc3)c2)[C@H](O)[C@@H](O)[C@@H]1O [2-(2-(4-(2-chloro-5-((2S,3R,4R,5S,6R)-3,4,5-trihydroxy-6-(methylthio)tetrahydro-2H-pyran-2-yl)benzyl)phenoxy)acetamido)-2-methylpropanamide]	< 0.01 µM	< 0.1 µM
CS[C@H]1O[C@@H](c2ccc(C)c(Cc3ccc(CCCCNC(C)(C)CO)cc3)c2)[C@H](O)[C@@H](O)[C@@H]1O [(2S,3R,4R,5S,6R)-2-(3-(4-(4-((1-hydroxy-2-methylpropan-2-yl)amino)butyl)benzyl)-4-methylphenyl)-6-(methylthio)tetrahydro-2H-pyran-3,4,5-triol]	< 0.01 µM	< 0.1 µM
CS[C@H]1OC(c2ccc(C)c(Cc3ccc(OCCCNC4(C(N)=O)CCCC4)cc3)c2)[C@H](O)[C@@H](O)[C@@H]1O (stereo partly drawn) [1-((3-(4-(2-methyl-5-((3R,4R,5S,6R)-3,4,5-trihydroxy-6-(methylthio)tetrahydro-2H-pyran-2-yl)benzyl)phenoxy)propyl)amino)cyclopentanecarboxamide]	< 0.01 µM	< 0.01 µM
CS[C@H]1O[C@@H](c2ccc(C)c(Cc3ccc(OCCCC(N)=O)cc3)c2)[C@H](O)[C@@H](O)[C@@H]1O [4-(4-(2-methyl-5-((2S,3R,4R,5S,6R)-3,4,5-trihydroxy-6-(methylthio)tetrahydro-2H-pyran-2-yl)benzyl)phenoxy)butanamide]	< 0.01 µM	< 0.1 µM
CS[C@H]1O[C@@H](c2ccc(C)c(Cc3ccc(CCCC(=O)O)cc3)c2)[C@H](O)[C@@H](O)[C@@H]1O [4-(4-(2-methyl-5-((2S,3R,4R,5S,6R)-3,4,5-trihydroxy-6-(methylthio)tetrahydro-2H-pyran-2-yl)benzyl)phenyl)butanoic acid]	< 0.01 µM	< 0.1 µM
CS[C@H]1O[C@@H](c2ccc(Cl)c(Cc3ccc(OCCNC(=N)N)cc3)c2)[C@H](O)[C@@H](O)[C@@H]1O [1-(2-(4-(2-chloro-5-((2S,3R,4R,5S,6R)-3,4,5-trihydroxy-6-(methylthio)tetrahydro-2H-pyran-2-yl)benzyl)phenoxy)ethyl)guanidine]	< 0.01 µM	< 0.01 µM
CS[C@H]1O[C@@H](c2ccc(C)c(Cc3ccc(OCCNC(C)(C)CO)cc3)c2)[C@H](O)[C@@H](O)[C@@H]1O [(2S,3R,4R,5S,6R)-2-(3-(4-(2-((1-hydroxy-2-methylpropan-2-yl)amino)ethoxy)benzyl)-4-methylphenyl)-6-(methylthio)tetrahydro-2H-pyran-3,4,5-triol]	< 0.01 µM	< 0.01 µM
CS[C@H]1OC(c2ccc(C)c(Cc3ccc(OCCNC(=O)N4CCN(C)CC4)cc3)c2)[C@H](O)[C@@H](O)[C@@H]1O (stereo partly drawn) [4-methyl-N-(2-(4-(2-methyl-5-((3R,4R,5S,6R)-3,4,5-trihydroxy-6-(methylthio)tetrahydro-2H-pyran-2-yl)benzyl)phenoxy)ethyl)piperazine-1-carboxamide]	< 0.01 µM	< 0.01 µM

Continued, values first:

IC50 [1]	IC50 [2]	Structure (SMILES)
< 0.01 µM	< 0.1 µM	CS[C@H]1O[C@@H](c2ccc(Cl)c(Cc3ccc(OCCCNC(=O)C(C)(C)CO)cc3)c2)[C@H](O)[C@@H](O)[C@@H]1O [N-(3-(4-(2-chloro-5-((2S,3R,4R,5S,6R)-3,4,5-trihydroxy-6-(methylthio)tetrahydro-2H-pyran-2-yl)benzyl)phenoxy)propyl)-3-hydroxy-2,2-dimethylpropanamide]
< 0.01 µM	< 0.1 µM	CS[C@H]1O[C@@H](c2ccc(C)c(Cc3ccc(CCCCCCC(=O)NC(CO)(CO)CO)cc3)c2)[C@H](O)[C@@H](O)[C@@H]1O [N-(1,3-dihydroxy-2-(hydroxymethyl)propan-2-yl)-7-(4-(2-methyl-5-((2S,3R,4R,5S,6R)-3,4,5-trihydroxy-6-(methylthio)tetrahydro-2H-pyran-2-yl)benzyl)phenyl)heptanamide]
< 0.01 µM	< 0.01 µM	CS[C@H]1O[C@@H](c2ccc(C)c(Cc3ccc(/C=C/CCC(=O)NC(C)(C)C(N)=O)cc3)c2)[C@H](O)[C@@H](O)[C@@H]1O [(E)-N-(1-amino-2-methyl-1-oxopropan-2-yl)-5-(4-(2-methyl-5-((2S,3R,4R,5S,6R)-3,4,5-trihydroxy-6-(methylthio)tetrahydro-2H-pyran-2-yl)benzyl)phenyl)pent-4-enamide]
< 0.01 µM	< 0.1 µM	CS[C@H]1O[C@@H](c2ccc(Cl)c(Cc3ccc(OCCCC(=O)NCC(C)(C)C(N)=O)cc3)c2)[C@H](O)[C@@H](O)[C@@H]1O [N-(3-amino-2,2-dimethyl-3-oxopropyl)-4-(4-(2-chloro-5-((2S,3R,4R,5S,6R)-3,4,5-trihydroxy-6-(methylthio)tetrahydro-2H-pyran-2-yl)benzyl)phenoxy)butanamide]
< 0.01 µM	< 0.01 µM	CS[C@H]1OC(c2ccc(C)c(Cc3ccc(OCCCNCC(C)(C)CO)cc3)c2)[C@H](O)[C@@H](O)[C@@H]1O (stereo partly drawn) [(3R,4R,5S,6R)-2-(3-(4-(3-((3-hydroxy-2,2-dimethylpropyl)amino)propoxy)benzyl)-4-methylphenyl)-6-(methylthio)tetrahydro-2H-pyran-3,4,5-triol]
< 0.01 µM	< 0.01 µM	CS[C@H]1O[C@@H](c2ccc(C)c(Cc3ccc(CCCC(=O)NC(C)(C)CO)cc3)c2)[C@H](O)[C@@H](O)[C@@H]1O [N-(1-hydroxy-2-methylpropan-2-yl)-4-(4-(2-methyl-5-((2S,3R,4R,5S,6R)-3,4,5-trihydroxy-6-(methylthio)tetrahydro-2H-pyran-2-yl)benzyl)phenyl)butanamide]
< 0.01 µM	< 0.01 µM	CNC(=O)C(C)(C)NC(=O)CCCc1ccc(Cc2cc([C@@H]3O[C@H](SC)[C@@H](O)[C@H](O)[C@H]3O)ccc2C)cc1 [N-(2-methyl-1-(methylamino)-1-oxopropan-2-yl)-4-(4-(2-methyl-5-((2S,3R,4R,5S,6R)-3,4,5-trihydroxy-6-(methylthio)tetrahydro-2H-pyran-2-yl)benzyl)phenyl)butanamide]
< 0.01 µM	< 0.01 µM	CS[C@H]1O[C@@H](c2ccc(C)c(Cc3ccc(OCCCC(=O)NC(C)(C)C(=O)NC4CCNCC4)cc3)c2)[C@H](O)[C@@H](O)[C@@H]1O [N-(2-methyl-1-oxo-1-(piperidin-4-ylamino)propan-2-yl)-4-(4-(2-methyl-5-((2S,3R,4R,5S,6R)-3,4,5-trihydroxy-6-(methylthio)tetrahydro-2H-pyran-2-yl)benzyl)phenoxy)butanamide]
< 0.01 µM	< 0.1 µM	CS[C@H]1O[C@@H](c2ccc(C)c(Cc3ccc(OCCCC(=O)NCCO)cc3)c2)[C@H](O)[C@@H](O)[C@@H]1O [N-(2-hydroxyethyl)-4-(4-(2-methyl-5-((2S,3R,4R,5S,6R)-3,4,5-trihydroxy-6-(methylthio)tetrahydro-2H-pyran-2-yl)benzyl)phenoxy)butanamide]
